According to patent US9545395B2, “Method and composition for enhancement of male erectile function” (priority 2008, dated 2017):

Tested on: male erectile function (penis)
Assay: Clinical observations and case reports (Patients A-G): erectile response of men after local or systemic application
Assay type: in vivo, man
Conditions: for persistence of improvements after the last injection: after last IGF1 injection
[1] = Patient C, severe erectile dysfunction, maximal doses, before treatment
[2] = Patient C, maximal oral doses with daily topical androgens
[3] = Patient D, maximal oral doses combined with intracavernosal injections, before local IGF1
[4] = Patient D, oral medication without intracavernosal injections, after local IGF1
[5] = Patient D, oral medications, baseline
[6] = Patient G, oral medication, baseline
[7] = Patient E, four weekly IGF1 injections plus 2.5% testosterone cream

For “Growth Hormone: Growth Hormone injections daily (Human Growth Hormone)”, the “erectile function” value (Patient D, daily Growth Hormone injections, 1 year) was “did not report a significant improvement in their erectile function”.

With `C[C@]12CC[C@H]3[C@@H](CCC4=CC(=O)CC[C@@]43C)[C@@H]1CC[C@@H]2O` [Testosterone] the “erectile function after about a month” value (Patient B, 10 mg Testosterone + 6 mcg LR3 IGF1 + 6 mcg PGE1 IC, 2-3 times per week) was “able to have sexual intercourse without any medications” and the “erectile response” value (Patient B, 10 mg Testosterone added to IC mixture of 6 mcg LR3 IGF1 plus 6 mcg PGE1, 2-3 times per week) was “dramatically harder and firmer erections”.

With `CN1CC(=O)N2[C@H](c3ccc4c(c3)OCO4)c3[nH]c4ccccc4c3C[C@@H]2C1=O` [Cialis] the “erectile response” value [1] was “not having any erections”, the “erectile response” value [2] was “still could not function” and the “erectile response” value [3] was “frequently going soft during intercourse”. The “erectile response” value [4] was “getting usable erections”, the “erectile response” value [5] was “not responding” and the “erectile response” value [6] was “not able function sexually”.

In the case of `CCCc1nc(C)c2c(=O)[nH]c(-c3cc(S(=O)(=O)N4CCN(CC)CC4)ccc3OCC)nn12` [Levitra], the “erectile response” value [1] was “not having any erections”, the “erectile response” value [2] was “still could not function” and the “erectile response” value [3] was “frequently going soft during intercourse”. The “erectile response” value [4] was “getting usable erections”, the “erectile response” value [5] was “not responding” and the “erectile response” value [6] was “not able function sexually”.

With “IGF1: IGF-1 (Somatomedin-C), full length protein of 70 amino acids in a single chain with three intramolecular disulfide bridges” the “erectile response” value (Patient C, 10-20 ug IGF-1 or 6-10 ug LR3 IGF1 sub-cutaneously plus topical 1% testosterone gel, 3-4 times per week, one month) was “erections dramatically improved”, the “reduction of intracavernosal medication dose” value (Patient D, after penile and intracavernosal IGF1 (5-10 ug combined with intracavernosal injections)) was “over 50%” and the “erectile function” value (Patient D, some of the daily 50-100 ug IGF1 injections applied intermittently into the penis) was “immediately experienced improved erectile function”. For the same compound, the “erectile response” value (Patient D, systemic IGF1 50-100 ug/day subcutaneously in abdomen, with intracavernosal meds) was “not getting adequate erections”, the “persistence of improvements after the last injection” value (Patient E) was “persisted for several weeks” and the “duration of erection after an intracavernosal injection” value [7] was “over 40 minutes”. For the same compound, the “hardness of erection after an intracavernosal injection” value [7] was “over 80%”, the “erectile function” value (Patient E, four weekly subcutaneous IGF1 injections into penis shaft plus 2.5% testosterone cream twice daily) was “dramatically improved the patient's erectile function” and the “persistence of improvements after the last injection” value (Patient G) was “persist for several weeks”. The “erectile function” value (Patient G, twice weekly subcutaneous 25 ug IGF1 into penis shaft, after Dihydrotestosterone cream) was “immediately began experiencing firmer spontaneous erections”, the “time to functional erections without the need for PDE5's” value (men relying on PDE5's, higher locally applied penile doses) was 1-2 weeks and the “time after discontinuation until improvement noticeably started weakening” value (men who had used only a couple of doses, essentially gone after a month) was 1-2 weeks. The “erectile function” value (men, 50-100 μg once per week sub-cutaneously or subdermally in the penis) was “dramatic improvement in their erectile function”.

For `CCCCC[C@H](O)/C=C/[C@H]1[C@H](O)CC(=O)[C@@H]1CCCCCCC(=O)O` [prostaglandin E1], the erection firmness (Patient A (person one), 1.5 ug prostaglandin E1 intracavernosally alone) was 70-75%, the erection firmness (Patient B, venous leakage, 6 ug prostaglandin E1 intracavernosally alone) was 60% and the duration of erection (Patient B, 6 ug prostaglandin E1 intracavernosally alone) was “about 30 mins”. For the same compound, the “erectile response” value (Patient C, maximum doses of PGE1 40 ug/ml plus triple mix papavarine, atropine, phentolamine) was “unable to obtain a usable erection”.

`CCCc1nn(C)c2c(=O)[nH]c(-c3cc(S(=O)(=O)N4CCN(C)CC4)ccc3OCC)nc12` [Viagra] was tested, and the “erectile response” value [1] was “not having any erections”, the “erectile response” value [2] was “still could not function” and the “erectile response” value [3] was “frequently going soft during intercourse”. For the same compound, the “erectile response” value [4] was “getting usable erections”, the “erectile response” value [5] was “not responding” and the “erectile response” value [6] was “not able function sexually”.
